ChEMBL document CHEMBL5303573, “Mapping human microbiome drug metabolism by gut bacteria and their genes” (Nature, 2019)

Experiments:
[1] = The drug is tested on Eubacterium hallii strain: DSM3353 for biotransformation. The drug concentrations were measured before and after a 12-h incubation by liquid-chromatography-coupled mass spectrometry (LC–MS); details: anaerobutyricum hallii, 2 µM
[2] = bacteroides eggerthii, 12 h, 2 µM
Description: The drug is tested on Bacteroides eggerthii strain: DSM20697 for biotransformation. The drug concentrations were measured before and after a 12-h incubation by liquid-chromatography-coupled mass spectrometry (LC–MS)

[3] = The drug is tested on Blautia hansenii strain: DSM20583 for biotransformation. The drug concentrations were measured before and after a 12-h incubation by liquid-chromatography-coupled mass spectrometry (LC–MS); details: 2 µM
[4] = The drug is tested on Bifidobacterium longum subsp. Infantis strain: CCUG52486 for biotransformation. The drug concentrations were measured before and after a 12-h incubation by liquid-chromatography-coupled mass spectrometry (LC–MS); details: 2 µM
[5] = victivallis vadensis, 12 h, 2 µM
Description: The drug is tested on Victivallis vadensis strain: ATCC BAA-548 for biotransformation. The drug concentrations were measured before and after a 12-h incubation by liquid-chromatography-coupled mass spectrometry (LC–MS)

[6] = segatella copri, 12 h, 2 µM
Description: The drug is tested on Prevotella copri strain: DSM18205 for biotransformation. The drug concentrations were measured before and after a 12-h incubation by liquid-chromatography-coupled mass spectrometry (LC–MS)

[7] = The drug is tested on Providencia rettgeri strain: DSM1131 for biotransformation. The drug concentrations were measured before and after a 12-h incubation by liquid-chromatography-coupled mass spectrometry (LC–MS); assay type: ADME; design: dose 2 uM, timepoint 0 vs 12 hours; details: 2 µM
[8] = The drug is tested on Bacteroides fragilis strain: ATCC43859 for biotransformation. The drug concentrations were measured before and after a 12-h incubation by liquid-chromatography-coupled mass spectrometry (LC–MS); details: 2 µM
[9] = bacteroides thetaiotaomicron, 12 h, 2 µM
Description: The drug is tested on Bacteroides thetaiotaomicron strain: VPI-5482 for biotransformation. The drug concentrations were measured before and after a 12-h incubation by liquid-chromatography-coupled mass spectrometry (LC–MS)

[10] = enterocloster bolteae, 12 h, 2 µM
Description: The drug is tested on Clostridium bolteae strain: ATCCBAA-613 for biotransformation. The drug concentrations were measured before and after a 12-h incubation by liquid-chromatography-coupled mass spectrometry (LC–MS)

[11] = The drug is tested on Providencia stuartii strain: ATCC25827 for biotransformation. The drug concentrations were measured before and after a 12-h incubation by liquid-chromatography-coupled mass spectrometry (LC–MS); details: 2 µM
[12] = The drug is tested on Collinsella intestinalis strain: DSM13280 for biotransformation. The drug concentrations were measured before and after a 12-h incubation by liquid-chromatography-coupled mass spectrometry (LC–MS); details: 2 µM
[13] = The drug is tested on Enterococcus faecalis strain: V583 for biotransformation. The drug concentrations were measured before and after a 12-h incubation by liquid-chromatography-coupled mass spectrometry (LC–MS); details: 2 µM
[14] = bacteroides stercoris, 12 h, 2 µM
Description: The drug is tested on Bacteroides stercoris strain: ATCC43183 for biotransformation. The drug concentrations were measured before and after a 12-h incubation by liquid-chromatography-coupled mass spectrometry (LC–MS)

[15] = The drug is tested on Ruminococcus gnavus strain: ATCC29149 for biotransformation. The drug concentrations were measured before and after a 12-h incubation by liquid-chromatography-coupled mass spectrometry (LC–MS); details: mediterraneibacter gnavus, 2 µM
[16] = limosilactobacillus reuteri cf48-3a, 12 h, 2 µM
Description: The drug is tested on Lactobacillus reuteri CF48-3A strain: BEI HM-102 for biotransformation. The drug concentrations were measured before and after a 12-h incubation by liquid-chromatography-coupled mass spectrometry (LC–MS)

[17] = The drug is tested on Clostridium asparagiforme strain: DSM15981 for biotransformation. The drug concentrations were measured before and after a 12-h incubation by liquid-chromatography-coupled mass spectrometry (LC–MS); assay type: ADME; design: dose 2 uM, timepoint 0 vs 12 hours; details: enterocloster asparagiformis, 2 µM
[18] = The drug is tested on Bacteroides cellulosilyticus strain: DSM14838 for biotransformation. The drug concentrations were measured before and after a 12-h incubation by liquid-chromatography-coupled mass spectrometry (LC–MS); details: 2 µM
[19] = The drug is tested on Clostridium sp. strain: fecal isolate for biotransformation. The drug concentrations were measured before and after a 12-h incubation by liquid-chromatography-coupled mass spectrometry (LC–MS); details: 2 µM
[20] = The drug is tested on Bacteroides fragilis strain: HMW615 for biotransformation. The drug concentrations were measured before and after a 12-h incubation by liquid-chromatography-coupled mass spectrometry (LC–MS); details: 2 µM

| Structure (SMILES) | Bacterial Biotransformation [1] | Bacterial Biotransformation [2] | Bacterial Biotransformation [3] | Bacterial Biotransformation [4] | Bacterial Biotransformation [5] | Bacterial Biotransformation [6] | Bacterial Biotransformation [7] | Bacterial Biotransformation [8] | Bacterial Biotransformation [9] | Bacterial Biotransformation [10] | Bacterial Biotransformation [11] | Bacterial Biotransformation [12] | Bacterial Biotransformation [13] | Bacterial Biotransformation [14] | Bacterial Biotransformation [15] | Bacterial Biotransformation [16] | Bacterial Biotransformation [17] | Bacterial Biotransformation [18] | Bacterial Biotransformation [19] | Bacterial Biotransformation [20] |
| --- | --- | --- | --- | --- | --- | --- | --- | --- | --- | --- | --- | --- | --- | --- | --- | --- | --- | --- | --- | --- |
| CC(C)(Oc1ccc(CCNC(=O)c2ccc(Cl)cc2)cc1)C(=O)O [BEZAFIBRATE] | Compound metabolized | Compound metabolized | Compound NOT metabolized | Compound metabolized | Compound NOT metabolized | Compound metabolized | Compound metabolized | Compound metabolized | Compound metabolized | Compound metabolized | Compound metabolized | Compound metabolized | Compound NOT metabolized | Compound metabolized | Compound NOT metabolized | Compound metabolized | Compound NOT metabolized | Compound metabolized | Compound metabolized |  |
| OC(CCN1CCCCC1)(c1ccccc1)C1CC2C=CC1C2 (stereo not given) [BIPERIDEN] | Compound NOT metabolized | Compound NOT metabolized | Compound NOT metabolized | Compound NOT metabolized | Compound NOT metabolized | Compound NOT metabolized | Compound NOT metabolized |  | Compound NOT metabolized | Compound NOT metabolized | Compound NOT metabolized | Compound NOT metabolized | Compound NOT metabolized | Compound NOT metabolized | Compound NOT metabolized | Compound NOT metabolized | Compound NOT metabolized | Compound NOT metabolized | Compound NOT metabolized | Compound NOT metabolized |
| CC(C)C[C@H]1C(=O)N2CCC[C@H]2[C@]2(O)O[C@](NC(=O)[C@@H]3C=C4c5cccc6[nH]c(Br)c(c56)C[C@H]4N(C)C3)(C(C)C)C(=O)N12.CS(=O)(=O)O [BROMOCRIPTINE MESYLATE] | Compound metabolized | Compound metabolized | Compound metabolized | Compound metabolized | Compound metabolized | Compound metabolized | Compound metabolized |  | Compound metabolized | Compound metabolized | Compound metabolized | Compound metabolized |  | Compound metabolized | Compound metabolized | Compound metabolized | Compound metabolized | Compound metabolized | Compound metabolized | Compound metabolized |
| CC(NC(C)(C)C)C(=O)c1cccc(Cl)c1 (stereo not given) [BUPROPION] | Compound NOT metabolized | Compound metabolized | Compound NOT metabolized |  | Compound NOT metabolized | Compound NOT metabolized |  |  | Compound NOT metabolized | Compound NOT metabolized |  | Compound NOT metabolized | Compound NOT metabolized | Compound NOT metabolized | Compound NOT metabolized | Compound NOT metabolized | Compound NOT metabolized | Compound NOT metabolized | Compound NOT metabolized | Compound NOT metabolized |
| CN1C(=O)CCS(=O)(=O)C1c1ccc(Cl)cc1 (stereo not given) [CHLORMEZANONE] | Compound NOT metabolized | Compound NOT metabolized | Compound metabolized | Compound NOT metabolized | Compound NOT metabolized | Compound NOT metabolized |  |  | Compound NOT metabolized | Compound NOT metabolized | Compound NOT metabolized | Compound NOT metabolized | Compound NOT metabolized |  |  | Compound NOT metabolized | Compound metabolized | Compound NOT metabolized | Compound metabolized | Compound NOT metabolized |
| CN1C[C@H](C(=O)N[C@]2(C)O[C@@]3(O)[C@@H]4CCCN4C(=O)[C@H](Cc4ccccc4)N3C2=O)C=C2c3cccc4[nH]cc(c34)C[C@H]21.CN1C[C@H](C(=O)N[C@]2(C)O[C@@]3(O)[C@@H]4CCCN4C(=O)[C@H](Cc4ccccc4)N3C2=O)C=C2c3cccc4[nH]cc(c34)C[C@H]21.O=C(O)C(O)C(O)C(=O)O [ERGOTAMINE TARTRATE] | Compound metabolized | Compound metabolized | Compound metabolized | Compound metabolized | Compound metabolized | Compound metabolized | Compound metabolized |  | Compound metabolized | Compound metabolized | Compound metabolized | Compound NOT metabolized | Compound NOT metabolized | Compound metabolized | Compound metabolized | Compound metabolized | Compound metabolized | Compound metabolized |  |  |
| CC[C@H](C)C(=O)O[C@H]1C[C@@H](C)C=C2C=C[C@H](C)[C@H](CC[C@@H]3C[C@@H](O)CC(=O)O3)[C@H]21 [LOVASTATIN] | Compound metabolized | Compound NOT metabolized |  | Compound NOT metabolized | Compound NOT metabolized | Compound NOT metabolized | Compound metabolized | Compound NOT metabolized | Compound NOT metabolized | Compound NOT metabolized |  | Compound NOT metabolized | Compound metabolized | Compound NOT metabolized | Compound NOT metabolized | Compound NOT metabolized | Compound metabolized | Compound metabolized | Compound metabolized | Compound metabolized |
| Cc1nc2n(c(=O)c1CCN1CCC(c3noc4cc(F)ccc34)CC1)CCCC2O (stereo not given) [PALIPERIDONE] | Compound metabolized | Compound metabolized | Compound metabolized | Compound metabolized | Compound NOT metabolized | Compound metabolized | Compound metabolized |  | Compound NOT metabolized | Compound metabolized |  | Compound NOT metabolized |  | Compound metabolized | Compound metabolized | Compound NOT metabolized | Compound metabolized | Compound metabolized | Compound metabolized | Compound NOT metabolized |
